The term IC50 denotes the point on the concentration scale where inhibition reaches its midpoint.

Experimental findings from ChEMBL document CHEMBL5728451, “Pyrimidinone derivatives as SHP2 antagonists” (2021) are described below.

The assay addresses T1, Tyrosine-protein phosphatase non-receptor type 11 (Homo sapiens, UniProt Q06124).
T1 sequence (Q06124 whole entry): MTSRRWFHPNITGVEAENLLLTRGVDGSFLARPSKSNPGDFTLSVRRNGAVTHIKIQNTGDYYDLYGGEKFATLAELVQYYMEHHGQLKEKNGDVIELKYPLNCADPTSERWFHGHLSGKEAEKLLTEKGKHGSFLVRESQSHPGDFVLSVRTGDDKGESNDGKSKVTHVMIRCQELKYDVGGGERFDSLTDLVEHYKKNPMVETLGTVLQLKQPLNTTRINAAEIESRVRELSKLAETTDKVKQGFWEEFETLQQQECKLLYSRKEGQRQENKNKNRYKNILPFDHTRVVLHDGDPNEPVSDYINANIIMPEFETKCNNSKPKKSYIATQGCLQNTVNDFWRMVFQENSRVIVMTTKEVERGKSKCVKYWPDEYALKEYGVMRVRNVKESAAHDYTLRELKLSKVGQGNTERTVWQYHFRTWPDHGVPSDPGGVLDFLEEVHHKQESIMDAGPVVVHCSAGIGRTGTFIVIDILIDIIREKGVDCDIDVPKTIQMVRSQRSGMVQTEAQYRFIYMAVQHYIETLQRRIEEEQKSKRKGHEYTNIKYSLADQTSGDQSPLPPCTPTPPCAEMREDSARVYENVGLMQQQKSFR
The assay is described as follows: Biochemical Assay: The inhibition of SHP2 by compounds of the invention was monitored using the surrogate substrate DiFMUP after protein activation by a peptide bearing two appropriately spaced phosphotyrosine. Full length SHP2 protein (Recombinant HumanSHP-2, E. coli derived Ser2Arg593, N-terminal 6His tag from R&D systems; […]) was incubated with activating peptide, IRSI_2pY (New England ….

Molecules are shown by their SMILES.

As for `Cc1nc(N2CCC(C)(CN)CC2)cc(=O)n1-c1cccc(C(F)(F)F)c1Cl`, the IC50 is 1500 nM.

Consider `Cc1nc(N2CCC3(CCCC3CN)CC2)cc(=O)n1-c1cccc(Cl)c1Cl` (configuration not stated), for which the IC50 worked out at 2100 nM.
